In patent US4401666A (priority 1982, dated 1983):

Columns and labels:
[1] = tested on: Escherichia coli
Protocol: (§1) Bacterial isolates for these studies were obtained from the New York State Mastitis Control Program, a division of veterinary clinical services of the New York State College of Veterinary Medicine, Cornell University. Samples were from cows with clinical mastitis or from milk cows that were cultured for a routine herd survey. Mastitis pathogens were identified by the use of standard bacteriologic technique^(1).
(§2) Concentrations inhibiting growth by 50% were determined using broth dilution test procedures^(2). Briefly 0.1 ml of cultures containing approximately 9×10^6 organisms/ml were inoculated into 10 mls of Tryptose-soy broth^(3) containing either 0, 1, 10, 100, or 1000 ppm of zinc pyridine-2-thione-N-oxide. These tubes were incubated at 37° C. for 18 hours and optical densities were read at 550 nanometers. Blanks for each test level consisted of a Tryptose-soy broth tube with the same concentration of test material. Concentrations of test material inhibiting growth by 50% were computed by probit analysis^(4).

[2] = tested on: Klebsiella pneumoniae
Protocol: as §1, §2

[3] = tested on: Pseudomonas aeruginosa; details: 37° C., 18 h, 2 isolates
Protocol: as §1, §2

[4] = tested on: Staphylococcus aureus; details: 37° C., 18 h, 5 isolates
Protocol: as §1, §2

[5] = tested on: microorganisms which cause bovine mastitis; details: broth
Protocol: as §1, §2

[6] = tested on: Yeast Group; test: Broth dilution growth inhibition (MIC), isolates from mastitic cows; format: cell-based; details: 37° C., 18 h, 5 isolates
[7] = tested on: E. coli; test: MIC in sterile, homogenized, skim milk; format: cell-based, Escherichia coli; details: 37° C., 4 h
Protocol: (§3) Cultures of E. coli and S. aureus were isolated from mammary glands of cows with mastitis. Cultures were streaked on blood agar plates and incubated for 24 hours at 37° C. Colonies from these plates were inoculated into nutrient broth tubes and incubated at 37° C. overnight. One-tenth milliliter aliquots of these cultures were inoculated into 10 milliliter tubes of sterile, homogenized, skim milk containing various concentrations of zinc pyridine-2-thione-N-oxide. The concentrations of this active compound ranged from 0.01 ppm to 100 ppm and were made by serially diluting a 1% by weight aqueous suspension of zinc pyridine-2-thione-N-oxide in 10 milliliter portions of sterile skim milk.
(§4) The milk tubes containing bacteria and zinc pyridine-2-thione-N-oxide were incubated in a shaking water bath at 37° C. for 4 hours; at the end of the incubation period, 0.1 ml of the milk incubate was added to 2 ml of soft agar (0.75% by weight agar and the rest being water) and plated on blood agar plates. These plates were incubated at 37° C. for 18 hours and the microorganisms present on each plate were counted with an NBS Automatic Colony Counter.

[8] = tested on: S. aureus; test: MIC in sterile, homogenized, skim milk; format: cell-based, Staphylococcus aureus; details: 37° C., 4 h
Protocol: as §3, §4

[9] = tested on: udder of normal, lactating cows; details: bovine, in vivo
[10] = tested on: udder of healthy, lactating cow; details: bovine, in vivo
[11] = bovine, in vivo
[12] = tested on: rats; details: cited from earlier work
[13] = Tryptose-soy broth, 37° C., 18 h, 5 isolates
[14] = Tryptose-soy broth, 37° C., 18 h, 3 isolates

[Na+].[O-][n+]1ccccc1[S-] [sodium pyridine-2-thione-N-oxide, 2-pyridinethiol-1-oxide, Na salt]
50% by Weight Growth Inhibited ([1]; Table 1A, broth, 37° C., 18 h, 5 isolates): 3.4 ± 0.8
50% by Weight Growth Inhibited ([2]; Table 1A, broth, 37° C., 18 h, 3 isolates): 5.2 ± 0.8
50% by Weight Growth Inhibited ([3]; Table 1A, broth): 38.0 ± 5.2
50% by Weight Growth Inhibited ([4]; Table 1A, broth): < 1.0
effectiveness against microorganisms which cause bovine mastitis [5]: effective
50% by Weight Growth Inhibited ([6]; Table 1A, broth): < 1.0

[O-]n1ccccc1=S.[O-]n1ccccc1=S.[Zn+2] [zinc pyridine-2-thione-N-oxide, bis[1-hydroxy-2(1H)pyridinethionato]zinc]
50% by Weight Growth Inhibited (concentration inhibiting growth by 50%) [1, 13]: 2.5 ± 0.5 ppm
100% by Weight Growth Inhibited (MIC) [1, 13]: 13-20 ppm
effectiveness against E. coli ([1]; broth): especially effective
50% by Weight Growth Inhibited (concentration inhibiting growth by 50%) [2, 14]: 2.1 ± 0.3 ppm
100% by Weight Growth Inhibited (MIC) [2, 14]: 10-20 ppm
effectiveness against K. pneumoniae ([2]; broth): especially effective
50% by Weight Growth Inhibited (concentration inhibiting growth by 50%) ([3]; Tryptose-soy broth): 9.6 ± 6.4 ppm
100% by Weight Growth Inhibited (MIC) ([3]; Tryptose-soy broth): 80-100 ppm
50% by Weight Growth Inhibited (concentration inhibiting growth by 50%) ([4]; Tryptose-soy broth): < 1.0 ppm
100% by Weight Growth Inhibited (MIC) ([4]; Tryptose-soy broth): 5-10 ppm
effectiveness against microorganisms which cause bovine mastitis [5]: effective
50% by Weight Growth Inhibited (concentration inhibiting growth by 50%) ([6]; Tryptose-soy broth): < 1.0 ppm
100% by Weight Growth Inhibited (MIC) ([6]; Tryptose-soy broth): 3-6 ppm
MIC at 95% Inhibition of Growth [7]: 10 ppm
MIC at 100% Inhibition of Growth [7]: 100 ppm
MIC at 95% Inhibition of Growth [8]: 10 ppm
MIC at 100% Inhibition of Growth [8]: 100 ppm
CMT scores, overall [9]: increased CTM scores
CMT values at 504 hours after the first dose [9]: Normal values
adverse effects on cow's udder [9]: some adverse effects on cow's udder
change in CMT scores [9]: increase
flakes and clots in milk [9]: produced flakes and clots in milk
milk output [9]: depressed milk output
milk production [9]: reduced more dramatically than the 1% infusion
overall effects compared with 1% infusion [9]: in general similar to 1% infusion except with increased severity
systemic effects [9]: no systemic effects were noted
warmth of the udder [9]: felt warm
change in CMT scores [10]: very slight rise
effect on CMT scores [10]: no effect
effect on other physical observations [10]: no effect
firmness of the udder to palpation [10]: increased firmness of the udder to palpation
irritation caused to the udder [10]: low irritation
disappearance from the milk [11]: relative quick disappearance from the milk
residual amounts in milk expected at lower infused amounts [11]: may be expected to be lower
residual content in milk, summary [11]: very low levels
LD50 [12]: 200 mg/kg
